# Experimental data published in PMC6627374, “Effects of the Pentapeptide P33 on Memory and Synaptic Plasticity in APP/PS1 Transgenic Mice: A Novel Mechanism Presenting the Protein Fe65 as a Target” (International Journal of Molecular Sciences, 2019).
# Where a SMILES comes first, the peptide text is derived from it.
# Legend:
# human Aβ1–42 = experiment: ELISA, soluble Aβ1–42 in HC and CTX; format: in vivo, human Aβ1–42 in APP/PS1 transgenic mice; settings: APP/PS1 mice; 5 mg∙kg^−1 i.p., six months
# Procedure: (§1) For this study, three-month-old male and female WT and APP/PS1 mice (n = 37) were used. Four groups were defined: WT-vehicle (physiological saline) (male n = 4; female n = 6), WT-P33 (male n = 6; female n = 5), APP/PS1-vehicle (male n = 3; female n = 5), and APP/PS1-P33 (male n = 6; female n = 2). Animals were subjected to intraperitoneal (i.p.) injections of P33 (5 mg∙kg^−1) for five days per week, over a course of six months. The mice were kept in groups under constant temperature (23 ± 0.5 °C), lighting (12-h/12-h light/dark cycle, lights on at 7:00 a.m.), and humidity (~50%). Standard mouse chow and tap water were supplied ad libitum. All behavioral experiments were performed in the light period. Handling was done daily at the same time.
# Nine-month-old mice (three animals per group) were euthanized via cervical dislocation. […] To quantify the level of Aβ in the mice, we used a sandwich ELISA Kit (Innotest Amyloid-[…]) from Innogenetics (Gent, Belgium), following the instructions of the manufacturer. The absorbance values were measured at 450 nm on a 96-well plate reader (NOVOstar OPTIMA, BMG Labtech, Offenburg, Germany).
# The results of spine density and immunohistochemistry experiments were calculated with one-way ANOVA followed by Fisher’s LSD post hoc tests. […] Data were analyzed with SPSS (IBM SPSS Statistics 24), and were expressed as the mean ± standard error of the mean (SEM). […]
# GFAP-positive astrocytes = experiment: GFAP immunohistochemistry, astrocyte density; format: in vivo, mouse; settings: APP/PS1-vehicle vs. WT-vehicle, WT-P33, APP/PS1-P33; whole HC and CTX; 5 mg∙kg^−1 i.p., six months
# Procedure: as §1
# Mice (five animals per group) were anaesthetized with chloral-hydrate (1 mg∙kg^−1) and perfused transcardially with PBS, followed by ice-cold 4% paraformaldehyde. The brains were removed, post-fixed in the same fixative, and immersed in a 30% sucrose solution containing 0.01% sodium-azide. […]
# Slides were scanned by a digital slide scanner (Mirax Midi, 3DHistech Ltd., Budapest, Hungary), equipped with a Pannoramic Viewer 1.15.4, CaseViewer 2.1 program and a QuantCenter, HistoQuant module (3DHistech Ltd., Budapest, Hungary). For quantification, all of the sections were analyzed. […] Antibody-positive cell types from the ROIs were counted and quantified. […]
structure (smiles),measurement,setting,value
C[C@@H](N)C(=O)N1CCC[C@@H]1C(=O)N[C@H](C)C(=O)N1CCC[C@@H]1C(=O)N[C@H](CCC(=O)O)C(N)=O [P33] (HELM PEPTIDE1{[dA].[dP].[dA].[dP].[dE].[am]}$$$$V2.0),"soluble Aβ1–42, effect of P33 (in words)",human Aβ1–42,decreased level of Aβ1–42 in the APP/PS1 mice
same,density of hyperreactive (GFAP-positive) astrocytes (in words),GFAP-positive astrocytes,"higher in the whole HC and CTX of the APP/PS1-vehicle group, than in the other three groups"
